The structures appear in SMILES notation.

As usually defined, the Kd is the concentration at which binding is half-saturated. A low value points to a tighter complex.

The target of experiment [1] is T1, DrPARG (Deinococcus radiodurans, UniProt Q9RZM4, T267K).
T1 construct: gene DR_B0099, pET28a, E. coli BL21(DE3); N-terminal His-tag cut with thrombin, GSHM left at N terminus; monomer, Mr 32 kDa; residues 100-110 GGGFLGGAQAQ
Nature of the experiment: isothermal titration calorimetry. As to conditions: 25 °C, 20 mM Tris-HCl pH 7.0, 100 mM NaCl; independent binding model. An excerpt:
(§1) isothermal titration calorimetry on DrPARG

The target of experiment [2] is T2, DrPARG (Deinococcus radiodurans, UniProt Q9RZM4).
T2 construct: gene DR_B0099, pET28a, E. coli BL21(DE3); N-terminal His-tag cut with thrombin, GSHM left at N terminus; monomer, Mr 32 kDa; residues 100-110 GGGFLGGAQAQ
T2 sequence (Q9RZM4 1-285): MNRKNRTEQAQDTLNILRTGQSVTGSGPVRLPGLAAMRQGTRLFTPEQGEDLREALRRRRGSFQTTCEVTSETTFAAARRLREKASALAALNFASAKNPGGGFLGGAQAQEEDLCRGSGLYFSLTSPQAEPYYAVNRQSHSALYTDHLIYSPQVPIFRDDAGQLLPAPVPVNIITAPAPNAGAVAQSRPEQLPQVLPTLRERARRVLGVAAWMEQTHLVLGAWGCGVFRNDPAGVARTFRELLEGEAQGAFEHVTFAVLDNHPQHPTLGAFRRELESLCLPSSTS
Kind of experiment: isothermal titration calorimetry. The note with it: 25 °C, 20 mM Tris-HCl pH 7.0, 100 mM NaCl; independent binding model; complex also as PDB 5ZDC, 5ZDD, 5ZDE.
From the text: as §1
For orientation: Isothermal titration calorimetry measures the heat released or taken up as one component is titrated into another.

In experiment [3] the target is T3, DrPARG (Deinococcus radiodurans, UniProt Q9RZM4, E112A).
T3 construct: gene DR_B0099, pET28a, E. coli BL21(DE3); N-terminal His-tag cut with thrombin, GSHM left at N terminus; monomer, Mr 32 kDa; residues 100-110 GGGFLGGAQAQ
T3 sequence (Q9RZM4 entry or part of it E112A): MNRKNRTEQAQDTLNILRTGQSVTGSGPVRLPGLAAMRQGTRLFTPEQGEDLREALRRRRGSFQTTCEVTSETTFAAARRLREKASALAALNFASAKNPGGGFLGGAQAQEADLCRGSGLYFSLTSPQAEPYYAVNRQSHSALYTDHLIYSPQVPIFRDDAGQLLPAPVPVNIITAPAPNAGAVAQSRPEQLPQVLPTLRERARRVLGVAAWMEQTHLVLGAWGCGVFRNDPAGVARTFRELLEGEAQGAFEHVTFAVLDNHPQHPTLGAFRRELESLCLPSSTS
Kind of experiment: isothermal titration calorimetry. As to conditions: 25 °C, 20 mM Tris-HCl pH 7.0, 100 mM NaCl; independent binding model.
From the text: as §1

Experiment [4] deals with T4, DrPARG (Deinococcus radiodurans, UniProt Q9RZM4, T267R).
T4 construct: gene DR_B0099, pET28a, E. coli BL21(DE3); N-terminal His-tag cut with thrombin, GSHM left at N terminus; monomer, Mr 32 kDa; residues 100-110 GGGFLGGAQAQ
T4 sequence (Q9RZM4 entry or part of it T267R): as the sequence (Q9RZM4 entry or part of it E112A) above, with A112E, T267R counted along it
Nature of the experiment: isothermal titration calorimetry. As to conditions: 25 °C, 20 mM Tris-HCl pH 7.0, 100 mM NaCl; independent binding model.
From the text: as §1

In experiment [5] the target is T2, DrPARG. Nature of the experiment: CD thermal denaturation at […] nm. The note with it: 10 µM protein, 30 µM ADP-ribose, 20 mM phosphate pH 7.5; printed as "increased Tm by 46.5 °C", read as Tm of complex. Format: binding.

T1 sequence (Q9RZM4 entry or part of it T267K): as the sequence (Q9RZM4 entry or part of it E112A) above, with A112E, T267K counted along it

Consider `Nc1ncnc2c1ncn2[C@@H]1O[C@H](COP(=O)(O)OP(=O)(O)OC[C@H]2OC(O)[C@H](O)[C@@H]2O)[C@@H](O)[C@H]1O` (some centres unmarked) [ADP-ribose], for which the Kd amounted to 1980 ± 20 nM in experiment [1], 1780 ± 50 nM in experiment [2], 2020 ± 70 nM in experiment [3] and 3760 ± 470 nM in experiment [4]. Also, in experiment [5], the “Tm with ligand (apo 45.2)” value is 46.5 °C.

The values above are taken from paper PMC6445106, “Structural and biochemical evidence supporting poly ADP-ribosylation in the bacterium Deinococcus radiodurans” (Nature Communications, 2019).
